Test results reported in patent publication US7223865B2, “Chromogenic compounds, and use thereof as enzyme substrates” (Biomerieux, priority 2003, dated 2007).

What was measured:
Assay type in all cases: cell-based
[1] = tested on: Escherichia coli (NCTC 14018); assay: glycine-aminopeptidase activity on gelled medium, Example 10; parameters: key: ++ means good growth; + means moderate growth; +/− means poor growth; NG means no growth
Protocol: (§1) A gelled medium comprising this substrate is prepared as follows: 30 mg of the substrate are dissolved (heating) in 10 ml of sterile distilled water. Ten ml of this solution are then added to 90 ml of Columbia agar, kept molten at 50° C.
(§2) Various strains of microorganisms derived from the NCTC collection (National Collection of Type Cultures, Colindale, UK) were seeded onto the media thus obtained according to the multipoint inoculation described in example 8 above.
(§3) The colonies formed were examined visually after incubation for 24 h and 48 h. The color and the growth of these colonies were noted.

[2] = tested on: Enterococcus faecalis (NCTC 755); assay: as above; parameters: key: ++ means good growth; + means moderate growth; +/− means poor growth; NG means no growth
Protocol: as §1, §2, §3

[3] = tested on: Staphylococcus aureus (NCTC 6571); assay: as above; parameters: key: ++ means good growth; + means moderate growth; +/− means poor growth; NG means no growth
Protocol: as §1, §2, §3

[4] = tested on: Enterococcus faecalis (NCTC 12697); assay: as above; parameters: key to growth: ++ means good growth; + means moderate growth; +/− means poor growth; NG means no growth
Protocol: as §1, §2, §3

[5] = tested on: Serratia marcescens (NCTC 10211); assay: as above; parameters: key to growth: ++ means good growth; + means moderate growth; +/− means poor growth; NG means no growth
Protocol: as §1, §2, §3

[6] = tested on: Staphylococcus aureus (NCTC 11939); assay: as above; parameters: key to growth: ++ means good growth; + means moderate growth; +/− means poor growth; NG means no growth
Protocol: as §1, §2, §3

[7] = tested on: Klebsiella pneumonia (NCTC 10896); assay: as above; parameters: key to growth: ++ means good growth; + means moderate growth; +/− means poor growth; NG means no growth
Protocol: as §1, §2, §3

[8] = tested on: Shigella sonnei (NCTC 9774); assay: as above; parameters: key to growth: ++ means good growth; + means moderate growth; +/− means poor growth; NG means no growth
Protocol: as §1, §2, §3

[9] = tested on: Enterobacter cloacae (NCTC 11936); assay: as above; parameters: key to growth: ++ means good growth; + means moderate growth; +/− means poor growth; NG means no growth
Protocol: as §1, §2, §3

[10] = tested on: Salmonella poona (NCTC 4840); assay: as above; parameters: key to growth: ++ means good growth; + means moderate growth; +/− means poor growth; NG means no growth
Protocol: as §1, §2, §3

[11] = tested on: Listeria monocytogenes (NCTC 11994); assay: as above; parameters: key to growth: ++ means good growth; + means moderate growth; +/− means poor growth; NG means no growth
Protocol: as §1, §2, §3

[12] = tested on: Escherichia coli O157 (NCTC 12079); assay: as above; parameters: key to growth: ++ means good growth; + means moderate growth; +/− means poor growth; NG means no growth
Protocol: as §1, §2, §3

[13] = tested on: Burkholderia cepacia (NCTC 10743); assay: as above; parameters: key to growth: ++ means good growth; + means moderate growth; +/− means poor growth; NG means no growth
Protocol: as §1, §2, §3

[14] = tested on: Enterococcus faecium (NCTC 7171); assay: as above; parameters: key to growth: ++ means good growth; + means moderate growth; +/− means poor growth; NG means no growth
Protocol: as §1, §2, §3

[15] = tested on: Pseudomonas aeruginosa (NCTC 10662); assay: as above; parameters: key to growth: ++ means good growth; + means moderate growth; +/− means poor growth; NG means no growth
Protocol: as §1, §2, §3

[16] = tested on: Salmonella typhimurium (NCTC 74); assay: as above; parameters: key to growth: ++ means good growth; + means moderate growth; +/− means poor growth; NG means no growth
Protocol: as §1, §2, §3

Candida albicans (138) = assay: L-proline-aminopeptidase activity on gelled medium, Example 6; conditions: 0.3 g/l, 24 hours
Protocol: (§4) A gelled medium comprising L-prolyl-9-(4-amino-phenyl)acridine (hereinafter referred to as L-Pro-4-APA) is prepared as follows: 45 g of Sabouraud agar are added to 1 liter of distilled water and then autoclaved. This reaction medium comprises 0.3 g/l of L-Pro-APA also introduced by means of a stock solution in DMSO.
(§5) Microorganisms derived from the applicant's collection were seeded onto this medium, by delimitation as three dials, using a suspension of 0.5 McFarland. The dishes were incubated at 37° C. for 24 hours. The colonies formed were examined visually after incubation for 24 hours. The color of these colonies was noted before and after the addition of a drop of acetic acid, hereinafter referred to as GAA (glacial acetic acid).

[17] = tested on: Candida parapsilosis (040); assay: as above; conditions: 0.3 g/l, 24 hours
Protocol: as §4, §5

Candida krusei (026) = assay: as above; conditions: 0.3 g/l, 24 hours
Protocol: as §4, §5

Candida lusitaniae (045) = assay: as above; conditions: 0.3 g/l, 24 hours
Protocol: as §4, §5

Candida glabrata (051) = assay: as above; conditions: 0.3 g/l, 24 hours
Protocol: as §4, §5

[18] = tested on: Candida guilliermondii (046); assay: as above; conditions: 0.3 g/l, 24 hours
Protocol: as §4, §5

Pseudomonas putida (028) = assay: β-alanine-aminopeptidase activity on gelled medium, Example 5; conditions: 0.3 g/l
Protocol: (§6) A gelled medium comprising 300 mg/l of β-Ala-4-AP-10-MA is prepared as follows: 46.37 g of Columbia agar are added to 1 liter of distilled water and then autoclaved, and the substrate is then introduced by means of a stock solution in DMSO. Microorganisms derived from the applicant's collection were seeded onto the medium, by delimitation as three dials, using a suspension of 0.5 McFarland. The dishes were incubated at 37° C. for 48 hours. The colonies formed were examined visually after incubation for 24 and 48 hours. The color of these colonies and also the intensity of this color were noted.

[19] = tested on: Pseudomonas aeruginosa (052); assay: as above; conditions: 0.3 g/l
Protocol: as §6

[20] = tested on: Pseudomonas fluorescens (016); assay: as above; conditions: 0.3 g/l
Protocol: as §6

[21] = tested on: Acinetobacter calcoaceticus (034); assay: as above; conditions: 0.3 g/l
Protocol: as §6

[22] = tested on: Pseudomonas aeruginosa (165); assay: as above; conditions: 0.3 g/l
Protocol: as §6

[23] = tested on: Burkholderia cepacia (004); assay: as above; conditions: 0.3 g/l
Protocol: as §6

Escherichia coli (032) = assay: as above; conditions: 0.3 g/l
Protocol: as §6

[24] = tested on: Klebsiella pneumoniae (023); assay: as above; conditions: 0.3 g/l
Protocol: as §6

[25] = tested on: Pseudomonas stutzeri (073); assay: as above; conditions: 0.3 g/l
Protocol: as §6

SMILES: C[n+]1c2ccccc2c(-c2ccc(NC(=O)CN)cc2)c2ccccc21.[Cl-] [G-4-AP-10-MA, glycyl-9-(4-aminophenyl)-10-methylacridine]
- growth ([1]; 24 h): NG
- growth ([1]; 48 h): NG
- growth ([2]; 24 h): NG
- growth ([2]; 48 h): NG
- growth ([3]; 24 h): NG
- growth ([3]; 48 h): NG
- color of colonies ([4]; 24 h): Colorless
- growth ([4]; 24 h): +
- color of colonies ([4]; 48 h): Colorless
- growth ([4]; 48 h): +
- color of colonies ([5]; 24 h): Orange
- growth ([5]; 24 h): ++
- color of colonies ([5]; 48 h): Orange
- growth ([5]; 48 h): ++
- color of colonies ([6]; 24 h): Colorless
- growth ([6]; 24 h): +
- color of colonies ([6]; 48 h): Colorless
- growth ([6]; 48 h): +
- color of colonies ([7]; 24 h): Orange
- growth ([7]; 24 h): ++
- color of colonies ([7]; 48 h): Orange
- growth ([7]; 48 h): ++
- color of colonies ([8]; 24 h): Orange
- growth ([8]; 24 h): ++
- color of colonies ([8]; 48 h): Orange
- growth ([8]; 48 h): ++
- color of colonies ([9]; 24 h): Orange
- growth ([9]; 24 h): ++
- color of colonies ([9]; 48 h): Orange
- growth ([9]; 48 h): ++
- color of colonies ([10]; 24 h): Orange
- growth ([10]; 24 h): ++
- color of colonies ([10]; 48 h): Orange
- growth ([10]; 48 h): ++
- color of colonies ([11]; 24 h): Colorless
- growth ([11]; 24 h): +
- color of colonies ([11]; 48 h): Colorless
- growth ([11]; 48 h): +
- color of colonies ([12]; 24 h): Orange
- growth ([12]; 24 h): ++
- color of colonies ([12]; 48 h): Orange
- growth ([12]; 48 h): ++
- color of colonies ([13]; 24 h): Orange
- growth ([13]; 24 h): ++
- color of colonies ([13]; 48 h): Orange
- growth ([13]; 48 h): ++
- color of colonies ([14]; 24 h): Colorless
- growth ([14]; 24 h): +
- color of colonies ([14]; 48 h): Colorless
- growth ([14]; 48 h): +
- color of colonies ([15]; 24 h): Pale orange
- growth ([15]; 24 h): (++)
- color of colonies ([15]; 48 h): Orange
- growth ([15]; 48 h): ++
- color of colonies ([16]; 24 h): Pale orange
- growth ([16]; 24 h): (++)
- color of colonies ([16]; 48 h): Pale orange
- growth ([16]; 48 h): ++

SMILES: O=C(Nc1ccc(-c2c3ccccc3nc3ccccc23)cc1)[C@@H]1CCCN1 [L-Pro-4-APA, L-Prolyl-9-(4-aminophenyl)acridine]
- Color (Candida albicans (138); after GAA): yellow
- Intensity (Candida albicans (138); after GAA): 3
- Color (Candida albicans (138); before GAA): yellow
- Intensity (Candida albicans (138); before GAA): 2
- Color ([17]; after GAA): yellow
- Intensity ([17]; after GAA): 2
- Color ([17]; before GAA): white
- Color (Candida krusei (026); after GAA): yellow
- Intensity (Candida krusei (026); after GAA): 3
- Color (Candida krusei (026); before GAA): yellow
- Intensity (Candida krusei (026); before GAA): 1
- Color (Candida lusitaniae (045); after GAA): no growth
- Color (Candida lusitaniae (045); before GAA): no growth
- Color (Candida glabrata (051); after GAA): yellow
- Intensity (Candida glabrata (051); after GAA): 3
- Color (Candida glabrata (051); before GAA): yellow
- Intensity (Candida glabrata (051); before GAA): 2
- Color ([18]; after GAA): no growth
- Color ([18]; before GAA): no growth

SMILES: C[n+]1c2ccccc2c(-c2ccc(NC(=O)CCN)cc2)c2ccccc21.[Cl-] [β-Ala-4-AP-10-MA, β-alanyl-9-(4-aminophenyl)-10-methylacridinium chloride]
- Color (Pseudomonas putida (028); 24 H): colorless
- Color (Pseudomonas putida (028); 48 h): colorless
- Color ([19]; 24 H): orange
- Intensity ([19]; 24 H): 2
- Color ([19]; 48 h): orange
- Intensity ([19]; 48 h): 3
- Color ([20]; 24 H): inhibited
- Color ([20]; 48 h): colorless
- Color ([21]; 24 H): colorless
- Color ([21]; 48 h): colorless
- Color ([22]; 24 H): orange
- Intensity ([22]; 24 H): 1.5
- Color ([22]; 48 h): orange
- Intensity ([22]; 48 h): 3
- Color ([23]; 24 H): colorless
- Color ([23]; 48 h): colorless
- Color (Escherichia coli (032); 24 H): colorless
- Color (Escherichia coli (032); 48 h): colorless
- Color ([24]; 24 H): colorless
- Color ([24]; 48 h): colorless
- Color ([25]; 24 H): inhibited
- Color ([25]; 48 h): colorless
